Entries after “also recorded” stand apart in the source; their conditions may differ.
Tests used:
mushroom tyrosinase [1] = molecular target: T1, mushroom tyrosinase (Agaricus bisporus, UniProt C7FF04); test: Tyrosinase kinetic analysis; assay type: biochemical
tyrosinase = tyrosinase (Agaricus bisporus, UniProt C7FF04); test: Fluorescence quenching of tyrosinase; assay type: binding, mushroom; conditions: for Kq / Ksv: λex 280 nm
fresh-cut apples = test: Anti-browning experiment on fresh-cut apples; design: species or system Fuji apples; conditions: stored at 5 °C for 4 days
[2] = DPPH free radical scavenging activity assay; conditions: read-out: DPPH radical scavenging IC50
[3] = ABTS radical cation scavenging activity assay; conditions: read-out: ABTS radical scavenging IC50
[4] = test system: human umbilical vein endothelial cells (HUVEC); test: MTT assay for cell viability; assay type: cell-based; conditions: 24-h treatment, up to 32 µM
mushroom tyrosinase [5] = molecular target: T1, mushroom tyrosinase; test: biochemical

Chain of tyrosinase (C7FF04 1-392 limits assumed): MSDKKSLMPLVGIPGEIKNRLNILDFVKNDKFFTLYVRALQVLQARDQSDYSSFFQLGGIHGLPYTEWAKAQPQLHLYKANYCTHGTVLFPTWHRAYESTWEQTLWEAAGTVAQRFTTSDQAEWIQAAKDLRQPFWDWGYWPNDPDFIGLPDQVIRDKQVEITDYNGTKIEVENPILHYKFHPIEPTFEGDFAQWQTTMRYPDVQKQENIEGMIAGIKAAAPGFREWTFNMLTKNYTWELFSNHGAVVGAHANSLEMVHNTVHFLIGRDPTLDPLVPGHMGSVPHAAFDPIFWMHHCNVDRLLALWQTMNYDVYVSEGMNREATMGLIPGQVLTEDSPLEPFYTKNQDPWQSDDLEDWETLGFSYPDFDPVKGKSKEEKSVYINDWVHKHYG
T1 sequence (C7FF04 1-392 limits assumed): as above

Ki (mushroom tyrosinase [1]): 0.365 µM | inhibition type (mushroom tyrosinase [1]; Lineweaver–Burk double reciprocal plots): mixed-type inhibitor | predominant quenching mechanism (tyrosinase; Stern-Volmer plots at 298, 303 and 310 K): dynamic quenching | Kq (tyrosinase; T 298 K): 1.952e+12 M⁻¹ s⁻¹ | Ksv (tyrosinase; T 298 K): 0.01952 L/µmol | Kq (tyrosinase; T 303 K): 2.478e+12 M⁻¹ s⁻¹ | Ksv (tyrosinase; T 303 K): 0.02478 L/µmol | Kq (tyrosinase; T 310 K): 2.823e+12 M⁻¹ s⁻¹ | Ksv (tyrosinase; T 310 K): 0.02823 L/µmol | IC50 [2]: 57.9 ± 0.28 µM | IC50 [3]: 45.64 ± 0.25 µM | IC50 (mushroom tyrosinase [5]): 1.363 ± 0.003 µM
Structure (SMILES): COc1ccc(C(C)=O)c(OCc2cn(Cc3cc(=O)c(O)co3)nn2)c1 [Compound 13t, 2-((4-((2-acetyl-5-methoxyphenoxy)methyl)-1H-1,2,3-triazol-1-yl)methyl)-5-hydroxy-4H-pyran-4-one]
L* value of fresh-cut apples (fresh-cut apples; 25 µM): 65.91 | L* value of fresh-cut apples (fresh-cut apples; 50 µM): 66.59 | L* value of fresh-cut apples (fresh-cut apples; 100 µM): 67.87 | toxicity to HUVEC (cell viability) [4]: no discernible toxicity; also recorded: no evident toxicity
